Results reported in US7517902B2, “Substituted indazoles, compositions containing the same, and the preparation and use thereof” (Aventis Pharma S.A., priority 2004, dated 2009).

What was measured:
Assay type in all cases: biochemical
[1] = biological target: T1, human KDR enzyme (Homo sapiens, UniProt P35968); assay: KDR substrate phosphorylation assay (scintillation, 96-well plate)
T1 construct: The cytoplasmic domain of the human KDR enzyme was cloned in the form of a GST fusion; GST; made in house; host or cells: SF21 insect cells (baculovirus, pFastBac)
T1 sequence (P35968 786-1356 limits assumed): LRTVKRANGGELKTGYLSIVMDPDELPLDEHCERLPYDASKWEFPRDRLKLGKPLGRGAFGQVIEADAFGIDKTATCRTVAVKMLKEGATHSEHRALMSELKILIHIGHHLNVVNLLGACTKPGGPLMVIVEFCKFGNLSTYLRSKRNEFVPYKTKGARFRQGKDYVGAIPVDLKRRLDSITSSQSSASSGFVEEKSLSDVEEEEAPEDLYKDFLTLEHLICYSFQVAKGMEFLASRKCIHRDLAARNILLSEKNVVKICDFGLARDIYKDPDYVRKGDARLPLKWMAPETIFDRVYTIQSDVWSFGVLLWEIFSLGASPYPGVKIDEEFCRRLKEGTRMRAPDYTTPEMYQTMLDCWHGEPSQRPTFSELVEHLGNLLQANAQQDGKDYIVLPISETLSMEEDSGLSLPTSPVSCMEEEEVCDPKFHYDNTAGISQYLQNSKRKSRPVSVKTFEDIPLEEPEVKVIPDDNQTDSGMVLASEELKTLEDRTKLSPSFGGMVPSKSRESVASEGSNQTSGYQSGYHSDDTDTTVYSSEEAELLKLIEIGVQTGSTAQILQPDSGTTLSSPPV
Description: The inhibitory effect of the compounds is determined in an assay of substrate phosphorylation by the KDR enzyme in vitro using a scintillation technique (96-well plate, NEN).
The cytoplasmic domain of the human KDR enzyme was cloned in the form of a GST fusion into the baculovirus expression vector pFastBac. The protein was expressed in SF21 cells and purified to approximately 60% homogeneity.
The KDR kinase activity is measured in 20 mM MOPS, 10 mM MgCl2, 10 mM MnCl2, 1 mM DTT, 2.5 mM EGTA, 10 mM β-glycerophosphate, pH=7.2, in the presence of 10 mM MgCl2, 100 μM Na3VO4, 1 mM NaF. 10 μl of the compound are added to 70 μl of kinase buffer, containing 100 ng of KDR enzyme at 4° C. The reaction is triggered by adding 20 μl of solution containing 2 μg of substrate (SH2-SH3 fragment of PLCγ expressed in the form of a GST fusion protein), 2 μCi γ^33P[ATP] and 2 μM cold ATP. After 1 hour of incubation at 37° C., the reaction is stopped by adding 1 volume (100 μl) of 200 mM EDTA. The incubation buffer is withdrawn and the wells are washed three times with 300 μl of PBS. The radioactivity is measured in each well using a Top Count NXT radioactivity counter (Packard).
The background noise is determined by measuring the radioactivity in four different wells containing the radioactive ATP and the substrate alone.
A control for total activity is measured in four different wells containing all of the reagents (γ^33P-[ATP], KDR and PLCγ substrate), but in the absence of compound.
The inhibition of KDR activity with the compound of the invention is expressed in percentage inhibition of the control activity determined in the absence of compound.
The compound SU5614 (Calbiochem) (1 μM) is included in each plate as an inhibition control.

[2] = biological target: T2, human Tie2 (Homo sapiens, UniProt Q02763); assay: Tie2 assay of PLC phosphorylation (FlashPlate); details: read-out: IC 50 TIE2
T2 construct: amino acids of the intracellular domain 776-1124; made in house
T2 sequence (Q02763 776-1124): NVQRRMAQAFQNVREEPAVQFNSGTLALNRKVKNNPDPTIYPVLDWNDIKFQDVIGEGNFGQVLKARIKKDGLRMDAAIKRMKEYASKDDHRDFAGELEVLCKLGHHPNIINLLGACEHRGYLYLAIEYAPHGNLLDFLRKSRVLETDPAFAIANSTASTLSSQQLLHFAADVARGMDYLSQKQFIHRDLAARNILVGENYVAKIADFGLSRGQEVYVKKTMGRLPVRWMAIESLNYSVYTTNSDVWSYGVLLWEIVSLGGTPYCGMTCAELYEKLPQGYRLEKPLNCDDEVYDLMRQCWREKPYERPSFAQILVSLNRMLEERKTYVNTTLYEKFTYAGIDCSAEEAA
Description: The coding sequence of human Tie2, corresponding to the amino acids of the intracellular domain 776-1124, was generated by PCR, using the cDNA isolated from human placenta as a model. This sequence was introduced into a baculovirus expression vector pFastBacGT in the form of a GST fusion protein.
The inhibitory effect of the molecules is determined in an assay of PLC phosphorylation by Tie2 in the presence of GST-Tie2 purified to approximately 80% homogeneity. The substrate is composed of the SH2-SH3 fragments of PLC expressed in the form of a GST fusion protein.
The kinase activity of Tie2 is measured in a 20 mM MOPS buffer, pH 7.2, containing 10 mM MgCl2, 10 mM MnCl2, 1 mM DTT, 10 mM of glycerol-phosphate. In a 96-well FlashPlate plate, kept on ice, a reaction mixture is deposited which is composed of 70 μl of kinase buffer containing 100 ng of GST-Tie2 enzyme per well. Subsequently 10 μl of the test molecule diluted to a concentration of 10% maximum in DMvSO are added. For a given concentration, each measurement is carried out in quadruplicate. The reaction is initiated by adding 20 μl of solution containing 2 μg of GST-PLC, 2 μM of cold ATP and 1 μCi of ^33P[ATP]. After 1 hour of incubation at 37° C., the reaction is terminated by adding 1 volume (100 μl) of 200 mM EDTA. Following removal of the incubation buffer, the wells are washed three times with 300 μl of PBS. The radioactivity is measured on a Wallac MicroBeta 1450.
The inhibition of Tie2 activity is calculated and expressed as a percentage inhibition relative to the control activity determined in the absence of compound.

[3] = biological target: T3, Aurora2 (Homo sapiens, UniProt O14965); assay: Aurora2 enzyme assay, NuMA substrate phosphorylation (Flashplate); details: read-out: IC 50 Aurora2
T3 construct: Aurora 2: whole recombinant protein comprising an N-terminal histidine tail; His tag (histidine tail) (N); made in house; host or cells: E. coli
T3 sequence (O14965 1-403): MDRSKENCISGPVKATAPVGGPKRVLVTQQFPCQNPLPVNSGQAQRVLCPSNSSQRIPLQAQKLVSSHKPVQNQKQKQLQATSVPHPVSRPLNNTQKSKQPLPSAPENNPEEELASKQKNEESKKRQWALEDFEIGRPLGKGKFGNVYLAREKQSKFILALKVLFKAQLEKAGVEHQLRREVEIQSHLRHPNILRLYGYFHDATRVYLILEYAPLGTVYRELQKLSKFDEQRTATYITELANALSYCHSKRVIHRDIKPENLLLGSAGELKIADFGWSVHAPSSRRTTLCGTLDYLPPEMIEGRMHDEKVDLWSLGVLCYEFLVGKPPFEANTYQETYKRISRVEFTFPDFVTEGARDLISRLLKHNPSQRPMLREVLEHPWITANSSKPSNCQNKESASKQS
Description: The inhibitory effect of compounds with respect to the kinases Aurora1 and Aurora2 is determined by an enzyme assay employing radioactivity detection.
The kinase activity of Aurora 1 and Aurora 2 is evaluated by the phosphorylation of the substrate Numa-histidine in the presence of radiolabeled ATP ([^33P]ATP), using 96-well Flashplate plates in which nickel chelate is fixed to the surface of the microplate. The amount of ^33P phosphate incorporated in the NuMA substrate is proportional to the activity of the enzyme Aurora1 or Aurora2.
The proteins are produced in the protein production laboratory of the SanofiAventis group.
Aurora 2: whole recombinant protein comprising an N-terminal histidine tail, expressed in E. coli and purified to more than 82%.
NuMA (nuclear protein that associates with the mitotic apparatus) fragment of 424 amino acids, expressed in E. coli, whose N-terminal end has been labeled with histidine and used as a substrate for the two Aurora enzymes.
The microplates used are 96-well Flash-Plate plates with nickel chelate (Perkin Elmer, model SMP107).
The products for evaluation are incubated in a reaction volume of 100 μL per well in the presence of 10 nM of Aurora 1 or Aurora 2, 500 nM of NuMA substrate in a buffer composed of 50 mM of Tris/HCl (pH 7.5), 50 mM NaCl, 5 mM MgCl2 (Aurora-B) or 10 mM MgCl2 (Aurora-A) and 1 mM of DTT, at 37° C.
In each well, 80 μL of the enzyme/substrate incubation buffer are distributed, followed by 10 μL of the product to be evaluated, in variable concentrations. The reaction is initiated by adding 1 μM of final ATP containing 0.2 μCi of [^33P]ATP (10 μL). After 30 minutes of incubation, the reaction is terminated by simply removing the reaction buffer and each well is washed twice with 300 μl of the Tris/HCl buffer. The radioactivity is then measured in each well by means of a scintillation apparatus, Packard, Top count model.
The control enzyme activity of Aurora is expressed by the number of counts per minute obtained within 30 minutes, after deduction of the background noise (reaction mixture not containing the enzyme). The evaluation of the various test products is expressed in percentage inhibition of the Aurora activity relative to the control.

Row | IC50 [1] | IC50 [2] | IC50 [3] | SMILES
1 | 40 nM | 20 nM | 28 nM | O=C(Nc1ccc(-c2ccc3c(NC(=O)c4ccsc4)n[nH]c3c2F)cc1)Nc1cccc(C(F)(F)F)c1 [Example 15, 1-(4-{7-Fluoro-3-[(thiophen-3-yl)carbonylamino]-1H-indazol-6-yl}phenyl)-3-(5-trifluoromethylphenyl)urea]
2 | 19 nM | 3 nM | 142 nM | Cc1ccc(-n2nc(C(C)(C)C)cc2NC(=O)Nc2ccc(-c3ccc4c(NC(=O)c5ccsc5)n[nH]c4c3F)cc2)cc1 [Example 16, 1-(4-{7-Fluoro-3-[(thiophen-3-yl)carbonylamino]-1H-indazol-6-yl}phenyl)-3-(5-tert-butyl-2-p-tolyl-2H-pyrazol-3-yl)urea]
3 | 329 nM | 231 nM | 92 nM | Nc1n[nH]c2c(F)c(-c3ccc(NC(=O)Nc4cccc(C(F)(F)F)c4)cc3)ccc12 [Example 19, 1-[4-(3-Amino-7-fluoro-1H-indazol-6-yl)phenyl]-3-(3-trifluoromethylphenyl)urea]
4 | 85 nM | 174 nM | 68 nM | CC(C)(C)c1cc(NC(=O)Nc2ccc(-c3ccc4c(N)n[nH]c4c3F)cc2)no1 [Example 21, 1-[4-(3-Amino-7-fluoro-1H-indazol-6-yl)phenyl]-3-(5-tert-butylisoxazol-3-yl)urea]
5 | 1940 nM | 5850 nM | 143 nM | Nc1n[nH]c2c(F)c(-c3ccc(NC(=O)Nc4ccccc4F)cc3)ccc12 [Example 22, 1-[4-(3-Amino-7-fluoro-1H-indazol-6-yl)phenyl]-3-(2-fluorophenyl)urea]
6 | 15 nM | 16 nM | 296 nM | Cc1cc(-c2ccc3c(NC(=O)c4ccsc4)n[nH]c3c2F)ccc1NC(=O)Nc1cc(C(F)(F)F)ccc1F [Example 23, 1-(4-{7-Fluoro-3-[(thiophen-3-yl)carbonylamino]-1H-indazol-6-yl}-2-methylphenyl)-3-(2-fluoro-5-trifluoromethylphenyl)urea]
7 | 11 nM | 17 nM | 94 nM | Cc1ccc(-n2nc(C(C)(C)C)cc2NC(=O)Nc2ccc(-c3ccc4c(N)n[nH]c4c3F)cc2)cc1 [Example 25, 1-[4-(3-Amino-7-fluoro-1H-indazol-6-yl)phenyl]-3-(5-tert-butyl-2-p-tolyl-2H-pyrazol-3-yl)urea]
8 | 1050 nM | 626 nM | 3380 nM | O=C(Nc1ccc(-c2ccc3c(NC(=O)C4CCCN4)n[nH]c3c2F)cc1)Nc1cc(C(F)(F)F)ccc1F [Example 26, 1-(4-{7-Fluoro-3-[(L-pyrrolidin-2-yl)carbonylamino]-1H-indazol-6-yl}phenyl)-3-(2-fluoro-5-trifluoromethylphenyl)urea]
9 | 79 nM | 143 nM | 335 nM | CC(=O)Nc1n[nH]c2c(F)c(-c3ccc(NC(=O)Nc4cc(C(F)(F)F)ccc4F)cc3)ccc12 [Example 27, 1-(4-{7-Fluoro-3-acetylamino-1H-indazol-6-yl}phenyl)-3-(2-fluoro-5-trifluoromethylphenyl)urea]
10 | 164 nM | 176 nM | 520 nM | O=CNc1n[nH]c2c(F)c(-c3ccc(NC(=O)Nc4cc(C(F)(F)F)ccc4F)cc3)ccc12 [Example 28, 1-(4-(7-Fluoro-3-formylamino-1H-indazol-6-yl}phenyl)-3-(2-fluoro-5-tri-fluoromethylphenyl)urea]
